The text below walks through data of US9359405B2, “Antagonists of the interleukin-1 receptor” (Phlogo ApS, priority 2011, dated 2016).

No end group written: not given here.

Data set [1] relates to NF-κB activated by IL1β (IL1RI signaling), HEK-Blue IL1β cells. Nature of the data set: IL1RI signaling assay, HEK-Blue IL1β reporter cells (NF-κB/SEAP). The data set is classed as cell-based. The note with it: IL1β 1.2 μM. An excerpt:
(§1) IL1RI signaling assay: Commercially available Blue™ Cytokine Reporter Cell technology from InvivoGen (Denmark distributor: Sigma-Aldrich Denmark) was used. It is represented by an expanding family of engineered cell lines designed to provide a simple, rapid, and reliable method of monitoring the activation of signaling pathways induced by key cytokines. HEK-Blue™ IL1β cells are specifically engineered to selectively respond to IL1β, and they feature the secreted embryonic alkaline phosphatase (SEAP) reporter gene under the control of an NF-κB-inducible promoter. […] A target/receptor-specificity of the Ilantafin effect was verified employing HEK-Blue™ IL6 cells.

For data set [2], the system named is IL1β-activated AMJ2-C8 macrophage cells. Kind of data set: TNFα secretion by IL1β-activated macrophages (L929/MTS bioassay). The note with it: IL1β 1.2 μM. The class given is cell-based. As for the experimental part: The Ilantafin peptide or IL1Ra or IL1RI was added to cultures of macrophages (AMJ2-C8) seeded in 6-well multi-dishes (Nunc) (2.5×10^5 cells/well). After 24 h of incubation at 37° C., IL1β (1.2 μM) was added to the cultures to activate the macrophages. L929 cells were seeded in a 96-well plate at a density of 2×10^5 cells/mL. Both cell cultures were incubated for 24 h at 37° C. Conditioned medium from the macrophage cultures was collected and added to the fibroblast cultures together with 0.6 μg/well actinomycin. D (Sigma-Aldrich). Finally, after 24 h of incubation at 37° C., 20 μl of 3-(4,5-dimethylthiazol-2-yl)-5-(3-carboxymethoxyphenyl)-2-(4-sulfophenyl)-2H-tetrazolium (MTS) (Promega, Madison, Wis., USA) was added to each well and the plates were incubated protected from light, at 37° C., for ˜45 min and the optical density was measured at 490 nm in a Sunrise absorbance reader (Tecan, Männedorf, Switzerland). In order to calculate the amount of TNF-α in the conditioned medium, a standard curve was obtained by treating fibroblasts with different concentrations of TNF-α (R&D systems, Minneapolis, Minn., USA).

Data set [3] deals with cerebellar granule neurons. Kind of data set: Survival assay, cerebellar granule neurons, low-potassium apoptosis. The class given is cell-based, rat. The note with it: 5 mM KCl, 2 days. As for the experimental part:
Survival assay: Primary cultures of CGN were plated at a density of 100,000 cells/cm2 on poly-L-lysine coated 8-well permanox slides in Neurobasal-A medium (Gibco BRL) supplemented with 2% (v/v) B27, 0.5% (v/v) glutamax, 100 units/mL penicillin, 100 µg/mL streptomycin and KCl, making the final concentration of KCl in the medium 40 mM. 24 hours after plating, cytosine-b-D-arabinofuranoside (Ara-C; Sigma-Aldrich) was added to a final concentration of 10 μM to avoid proliferation of glial cells, after which the neurons were allowed to differentiate for a further 6 days at 37° C. Apoptotic cell death was induced by washing twice and changing the medium to Basal Medium Eagle (BME; Gibco BRL) supplemented with 1% (v/v) glutamine, 100 U/mL penicillin and 100 µg/mL streptomycin, 3.5 g D-glucose/L and 1% (v/v) sodium pyruvate (Gibco BRL) together with various concentrations of peptide. Thereby the concentration of potassium in the cultures was reduced to 5 mM KCl (Ditlevsen et al., 2003). Two days after induction of apoptosis, the cells were fixed with 4% (v/v) formaldehyde and stained with Hoechst 33258 as described for the survival assay employing hippocampal neurons.

Data set [4] has as its system cerebellar granule neurons. Nature of the data set: Neurite outgrowth in primary cerebellar granule neurons. The class given is cell-based, rat. The note with it: for neurite outgrowth: 24 h, primary cerebellar neurons. As for the experimental part:
Cerebellar granular neurons (CGN) were prepared from 3 or 7 postnatal (P) day Wistar rats (Charles River, Sulzfeld, Germany or Taconic, Ejby, Denmark). Cerebella were cleared of meninges and blood vessels, roughly homogenized by chopping, and trypsinized with trypsin from Sigma-Aldrich (Brøndby, Denmark). The neurons were washed in the presence of DNAse 1 and soybean trypsin inhibitor (Sigma-Aldrich), and cellular debris was pelleted by centrifugation before plating. CGNs were plated at a density of 10,000 cells/well onto uncoated eight-well Lab-Tek chamber slides (NUNC, Slangerup, Denmark) in Neurobasal-A medium supplemented with 0.4% (w/v) BSA. Peptides or proteins at various concentrations were added to the medium immediately after plating, and cells were maintained at 37° C. and 5% CO2 for 24 h. Cultures then were fixed, blocked and incubated with polyclonal rabbit antibody against rat GAP-43 (Chemicon, Temecula, Calif., USA) followed by incubation with secondary Alexa Fluor488 goat anti-rabbit antibody (Molecular Probes, Eugene, Oreg., USA) as previously described (Neiiendam et al., 2004). The immunostained cultures were all recorded by computer-assisted fluorescence microscopy using a Nikon Diaphot inverted microscope (Nikon, Japan) equipped with a Nikon Plane 20× objective. Images were captured with a charge-coupled device video camera (Grundig Electronics, Nurnberg, Germany) using the software package Prima developed at the Protein Laboratory (University of Copenhagen, Copenhagen, Denmark). The length of neuronal processes per cell was estimated using the software package Process Length developed at the Protein Laboratory (Ronn et al. 2000). For estimation of neurite outgrowth, at least 200±20 cells were processed for each group in each individual experiment.

Data set [5] can be described thus: Peptide solubility on reconstitution. The data set is classed as physicochemical. An excerpt:
Upon receiving the peptides from the synthesizing company (as powder), they were reconstituted in water, in PBS or in medium. Thus it is immediately apparent whether a peptide is soluble or not.

Data set [6] concerns the target T1, IL1RI (Homo sapiens, UniProt P14778).
T1 construct: The recombinant protein comprising the whole extracellular part of IIL1RI was immobilised on the surface of a CM5 sensor chip
Kind of data set: Kb (s^-1). An excerpt:
(§2) Table printed on a drawing sheet, Figure 3
Head of the field: Kb (s^-1)
(§3) First copying reader's note: Rate and affinity constants for binding to IL1RI; each cell holds the value with its ± error, and Ilantafin is a peptide while ILRa and IL1β are proteins.

Data set [7] concerns the target T1, IL1RI. Nature of the data set: ka (M^-1s^-1).
Text: as §2
Head of the field: ka (M^-1s^-1)
as §3

In data set [8] the test system is STAT signalling induced by IL6, HEK-Blue IL6 cells. Nature of the data set: Target specificity, HEK-Blue IL6 cells. The class given is cell-based.
Text: as §1

Data set [9] has as its system collagen-induced arthritis (CIA). Kind of data set: Collagen-induced arthritis in rats, treatment from day 15 (Example 7). The data set is classed as in vivo, rat. The conditions noted are these: 3.3 and 10 mg/kg s.c. daily from day 15. From the text:
Rheumatoid arthritis is a chronic, inflammatory, systemic autoimmune disease that affects about 1% of the general population in Western countries. Collagen-induced arthritis (CIA) in rats is a widely employed animal model for the screening of anti-inflammatory compounds. Collagen bovine, type II (CII, Cat.no.20021, Lot 090209, Chondrex, USA), Complete Freund's Adjuvant, containing 0.1% of Mycobacterium tuberculosis (CFA, Cat.no. F5581, Lot 049K8700, Sigma-Aldrich), Incomplete Freund's Adjuvant (IFA, Cat.no. F5506, Lot 058K8702, Sigma). PBS (Panum Institute, Copenhagen University). Isofluran (Baxter). Animals were immunized twice: on day 0 (CII+CFA) and on day 10 (CII+IFA, booster). On day 15 the mean clinical score reached a value of 5.0 and all animals were divided into 3 groups so that the severity of disease (mean clinical score) in all groups was almost equal. The peptide (two doses, 3.3 and 10 mg/kg) was administered subcutaneously daily starting at day 15. The clinical evaluation of the arthritis severity was assessed using the following grading system: O— no redness or swelling in foot and palm; 1—slight swelling or redness in metatarsophalangeal joint and ankle joint foot or palm; 2—progressed swelling/inflammation and redness from ankle to mid foot or in entire palm; 3—swelling/inflammation of entire foot except toes; 4—swelling and inflammation of entire foot including toes.

As for SGRKSSKMQA-OH [Ilantafin-m], the “inhibition of NF-κB activation induced by IL1β” value in data set [1] was “inhibitory effect”. The “inhibition of TNFα secretion by IL1β-activated macrophages” value (from here on “inhibition of TNFα secretion”) in [2] is “inhibitory effect”. Further, the “neuronal survival / cell death (apoptosis) induced by lowering potassium” value in data set [3] is “promotes survival of cerebellar granule neurons”.

For the molecule “IL1β: Interleukin-1 beta, pro-inflammatory cytokine, agonist of the IL1 receptor [listing 1 of 2 here]”, the neurite outgrowth entry in [4] is given as “does not affect neuritogenesis”. Also, the “effect on Ilantafin- and IL1Ra-induced neurite outgrowth” value in data set [4] (co-treatment) was “inhibits Ilantafin- and IL1Ra induced neurite outgrowth”.

Consider “AQMKSSKRGS (listed as Homo sapiens) [Ilantafin rev-d, reference compound]”, for which the “inhibition of NF-κB activation induced by IL1β” value in [1] is reported as “neither two peptides with scrambled sequences, Ilantafin scr-d1 (KQSAGKRSMS) (SEQ ID NO:39), Ilantafin scr-d2 (KASQKGMSRS) (SEQ ID NO:40), nor a peptide with the reverseequence, Ilantafin rev-d (AQMKSSKRGS) (SEQ ID NO:41) inhibit the activation of NF-KB induced by IL1β”.

As for “KASQKGMSRS (listed as Homo sapiens) [Ilantafin scr-d2, reference compound]”, in [1], the “inhibition of NF-κB activation induced by IL1β” value is reported as “neither two peptides with scrambled sequences, Ilantafin scr-d1 (KQSAGKRSMS) (SEQ ID NO:39), Ilantafin scr-d2 (KASQKGMSRS) (SEQ ID NO:40), nor a peptide with the reverseequence, Ilantafin rev-d (AQMKSSKRGS) (SEQ ID NO:41) inhibit the activation of NF-KB induced by IL1β”.

Regarding VTKFYFQED-OH [Ilantafin-4, VTKFYFQED], the solubility in water entry in [5] is given as “not soluble in water”.

For “EGVMVTKFYFQED-OH [Ilantafin-5, EGVMVTKFYFQED]”, the solubility entry in [5] was “completely insoluble when produced”.

Regarding “KQSAGKRSMS (listed as Homo sapiens) [Ilantafin scr-d1, reference compound]”, the “inhibition of NF-κB activation induced by IL1β” value in data set [1] is “neither two peptides with scrambled sequences, Ilantafin scr-d1 (KQSAGKRSMS) (SEQ ID NO:39), Ilantafin scr-d2 (KASQKGMSRS) (SEQ ID NO:40), nor a peptide with the reverseequence, Ilantafin rev-d (AQMKSSKRGS) (SEQ ID NO:41) inhibit the activation of NF-KB induced by IL1β”.

In the case of AGYLQGPNVN-OH [Ilantafin-2], in data set [5], the “solubility in PBS or medium” value is recorded as “not soluble in PBS or medium” and the solubility in water entry is reported as “soluble in water”.

“IL1β: Interleukin-1 beta, pro-inflammatory cytokine, agonist of the IL1 receptor [listing 2 of 2 here]”: the “Kb (s^-1)” value in data set [6] was 2.69 ± 0.58 x 10^-3 s^-1. In addition, in data set [7], the “ka (M^-1s^-1)” value is listed as 1.84 ± 0.20 x 10^5 M^-1s^-1.

Regarding NQKTFYLRNNQL-OH [Ilantafin-6], in data set [5], the “solubility in PBS or medium” value is on record as “not soluble in PBS or medium” and the solubility in water result is reported as “soluble in water”.

For the molecule NQLVAGYLQGPNVN-OH [Ilantafin-3], the solubility in water entry in data set [5] was “not soluble in water”.

On to “SGRKSSKMQA (also: tetrameric dendrimer; listed as Homo sapiens) [Ilantafin-d]”, for which the “inhibition of NF-κB activation induced by IL1β” value in data set [1] was “inhibitory effect”. Besides, in data set [8], the “effect on STAT signalling induced by IL6” value is recorded as “does not affect the activation of STAT signalling induced by IL6”. In addition, the “inhibition of TNFα secretion” value in [2] is “inhibitory effect”. In addition, in [3], the “neuronal survival / cell death (apoptosis) induced by lowering potassium” value is on record as “promotes survival of cerebellar granule neurons”. The “clinical manifestations (clinical score) of CIA” value in data set [9] is reported as “abrogated an increase in clinical manifestations of the disease”.

Consider “IL1Ra: IL-1 receptor antagonist protein; commercial IL1Ra used as positive control”, for which the “inhibition of NF-κB activation induced by IL1β” value in data set [1] is on record as “inhibitory effect”. Besides, in [2], the “inhibition of TNFα secretion” value is listed as “also inhibit macrophage activation”. Besides, the neurite outgrowth entry in data set [4] is recorded as “induce neurite outgrowth in primary cerebellar neurons in a dose-dependent manner”.

B1: SIL1RI: soluble IL1 receptor type 1 protein, positive control (protein)
chain: LEADKCKEREEKIILVSSANEIDVRPCPLNPNEHKGTITWYKDDSKTPVSTEQASRIHQHKEKLWFVPAKVEDSGHYYCVVRNSSYCLRIKISAKFVENEPNLCYNAQAIFKQKLPVAGDGGLVCPYMEFFKNENNELPKLQWYKDCKPLLLDNIHFSGVKDRLIVMNVAEKHRGNYTCHASYTYLGKQYPITRVIEFITLEENKPTRPVIVSPANETMEVDLGSQIQLICNVTGQLSDIAYWKWNGSVIDEDDPVLGEDYYSVENPANKRRSTLITVLNISEIESRFYKHPFTCFAKNTHGIDAAYIQLIYPVTNFQK
As for B1, the “inhibition of NF-κB activation induced by IL1β” value in [1] is “inhibitory effect”. The “inhibition of TNFα secretion” value in data set [2] was “also inhibit macrophage activation”. In addition, the neurite outgrowth entry in data set [4] is recorded as “induce neurite outgrowth in primary cerebellar neurons in a dose-dependent manner”.
